According to ChEMBL document CHEMBL4804284:

Assays:
Set-up in all cases: scale not given: the % may be the effect or the level left
[1] = tested on: Tyrosine-protein kinase ABL1 (Homo sapiens), P00519 [F317L]; assay: Inhibition of DNA-tagged non-phosphorylated human ABL1 F317L mutant assessed as percent of control at 50000 nM by qPCR analysis relative to control
[2] = target: Mitogen-activated protein kinase kinase kinase kinase 3 (Homo sapiens) (UniProt Q8IVH8); assay: Inhibition of DNA-tagged human MAP4K3 assessed as percent of control at 50000 nM by qPCR analysis relative to control
Chain of Mitogen-activated protein kinase kinase kinase kinase 3 (Homo sapiens) (Q8IVH8 whole entry): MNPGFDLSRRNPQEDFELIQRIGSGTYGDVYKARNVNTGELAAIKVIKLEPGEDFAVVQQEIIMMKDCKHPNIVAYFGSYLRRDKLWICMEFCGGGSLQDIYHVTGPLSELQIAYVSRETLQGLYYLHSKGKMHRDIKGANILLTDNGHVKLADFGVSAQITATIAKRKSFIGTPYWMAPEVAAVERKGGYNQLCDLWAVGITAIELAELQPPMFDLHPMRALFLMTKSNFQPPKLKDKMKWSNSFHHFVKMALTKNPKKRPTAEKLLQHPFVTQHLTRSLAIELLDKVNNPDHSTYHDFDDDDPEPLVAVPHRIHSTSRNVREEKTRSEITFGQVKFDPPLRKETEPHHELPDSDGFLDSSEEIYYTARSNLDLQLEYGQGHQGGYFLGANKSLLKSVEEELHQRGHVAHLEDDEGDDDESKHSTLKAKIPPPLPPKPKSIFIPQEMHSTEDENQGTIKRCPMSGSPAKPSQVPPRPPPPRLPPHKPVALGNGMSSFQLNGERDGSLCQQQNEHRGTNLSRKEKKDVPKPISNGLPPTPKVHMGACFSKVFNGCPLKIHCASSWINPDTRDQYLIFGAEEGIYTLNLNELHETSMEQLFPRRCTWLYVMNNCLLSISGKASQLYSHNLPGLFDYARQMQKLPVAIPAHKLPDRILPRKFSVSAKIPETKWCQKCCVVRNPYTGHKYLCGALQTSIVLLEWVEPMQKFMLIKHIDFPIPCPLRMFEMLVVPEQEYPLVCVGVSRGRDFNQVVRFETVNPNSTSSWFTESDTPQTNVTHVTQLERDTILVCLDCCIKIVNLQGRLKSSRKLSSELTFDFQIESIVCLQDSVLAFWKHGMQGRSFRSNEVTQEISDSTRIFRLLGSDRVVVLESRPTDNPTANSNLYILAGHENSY

[3] = target: Serine/threonine-protein kinase PLK2 (Homo sapiens) (UniProt Q9NYY3); assay: Inhibition of DNA-tagged human PLK2 assessed as percent of control at 50000 nM by qPCR analysis relative to control
[4] = target: Phosphatidylinositol 3-kinase C2 domain-containing subunit gamma (Homo sapiens) (UniProt O75747); assay: Inhibition of DNA-tagged human PIK3C2G assessed as percent of control at 50000 nM by qPCR analysis relative to control
[5] = target: Serine/threonine-protein kinase LATS2 (Homo sapiens) (UniProt Q9NRM7); assay: Inhibition of DNA-tagged human LATS2 assessed as percent of control at 50000 nM by qPCR analysis relative to control
[6] = target: Serine/threonine-protein kinase ULK3 (Homo sapiens) (UniProt Q6PHR2); assay: Inhibition of DNA-tagged human ULK3 assessed as percent of control at 50000 nM by qPCR analysis relative to control
Chain of Serine/threonine-protein kinase ULK3 (Homo sapiens) (Q6PHR2 whole entry): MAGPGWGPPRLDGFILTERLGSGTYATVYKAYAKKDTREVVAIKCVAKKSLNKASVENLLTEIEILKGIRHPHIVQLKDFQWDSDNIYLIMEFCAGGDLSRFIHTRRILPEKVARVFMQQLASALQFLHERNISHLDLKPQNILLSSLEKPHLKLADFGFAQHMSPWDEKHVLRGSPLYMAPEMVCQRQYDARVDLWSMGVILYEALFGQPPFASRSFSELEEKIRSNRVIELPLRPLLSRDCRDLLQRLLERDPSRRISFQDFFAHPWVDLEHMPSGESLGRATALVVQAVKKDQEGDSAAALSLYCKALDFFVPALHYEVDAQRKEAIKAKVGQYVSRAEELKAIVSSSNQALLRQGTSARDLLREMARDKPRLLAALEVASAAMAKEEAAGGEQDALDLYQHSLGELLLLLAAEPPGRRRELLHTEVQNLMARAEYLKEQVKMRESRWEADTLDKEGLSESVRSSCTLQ

[7] = target: Cyclin-dependent kinase-like 2 (Homo sapiens) (UniProt Q92772); assay: Inhibition of DNA-tagged human CDKL2 assessed as percent of control at 50000 nM by qPCR analysis relative to control
[8] = target: Microtubule-associated serine/threonine-protein kinase 1 (Homo sapiens) (UniProt Q9Y2H9); assay: Inhibition of DNA-tagged human MAST1 assessed as percent of control at 50000 nM by qPCR analysis relative to control
[9] = target: Phosphatidylinositol 4,5-bisphosphate 3-kinase catalytic subunit delta isoform (Homo sapiens) (UniProt O00329); assay: Inhibition of DNA-tagged human PIK3CD assessed as percent of control at 50000 nM by qPCR analysis relative to control
[10] = target: Ephrin type-A receptor 1 (Homo sapiens) (UniProt P21709); assay: Inhibition of DNA-tagged human EPHA1 assessed as percent of control at 50000 nM by qPCR analysis relative to control
Chain of Ephrin type-A receptor 1 (Homo sapiens) (P21709 whole entry): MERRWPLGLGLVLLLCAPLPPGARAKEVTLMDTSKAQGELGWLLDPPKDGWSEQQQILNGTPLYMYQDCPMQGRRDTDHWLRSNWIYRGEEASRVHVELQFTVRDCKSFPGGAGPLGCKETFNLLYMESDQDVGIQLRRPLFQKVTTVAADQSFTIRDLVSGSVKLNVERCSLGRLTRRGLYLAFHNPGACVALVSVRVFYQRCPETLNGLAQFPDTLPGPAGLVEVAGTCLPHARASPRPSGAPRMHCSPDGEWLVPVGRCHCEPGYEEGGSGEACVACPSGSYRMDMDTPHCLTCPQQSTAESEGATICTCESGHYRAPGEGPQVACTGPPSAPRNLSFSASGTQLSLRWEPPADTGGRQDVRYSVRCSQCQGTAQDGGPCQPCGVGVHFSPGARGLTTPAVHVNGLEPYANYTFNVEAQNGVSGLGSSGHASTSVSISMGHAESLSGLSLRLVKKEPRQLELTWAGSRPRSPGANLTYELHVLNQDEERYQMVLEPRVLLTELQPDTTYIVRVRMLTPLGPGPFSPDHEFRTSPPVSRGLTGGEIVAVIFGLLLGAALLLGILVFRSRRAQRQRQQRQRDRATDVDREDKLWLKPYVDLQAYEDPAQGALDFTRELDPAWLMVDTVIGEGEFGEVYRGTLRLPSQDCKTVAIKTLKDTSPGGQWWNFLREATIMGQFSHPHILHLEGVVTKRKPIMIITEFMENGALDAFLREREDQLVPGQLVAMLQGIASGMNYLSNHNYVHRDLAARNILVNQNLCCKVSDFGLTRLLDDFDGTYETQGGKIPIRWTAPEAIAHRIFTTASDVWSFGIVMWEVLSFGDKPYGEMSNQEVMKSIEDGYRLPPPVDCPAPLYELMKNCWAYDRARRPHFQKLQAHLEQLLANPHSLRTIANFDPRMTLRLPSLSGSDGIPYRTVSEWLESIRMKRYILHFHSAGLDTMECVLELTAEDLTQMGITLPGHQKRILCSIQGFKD

[11] = target: Cyclin-dependent kinase 5 (Homo sapiens) (UniProt Q00535); assay: Inhibition of DNA-tagged human CDK5 assessed as percent of control at 50000 nM by qPCR analysis relative to control
[12] = target: Serine/threonine-protein kinase Nek6 (Homo sapiens) (UniProt Q9HC98); assay: Inhibition of DNA-tagged human NEK6 assessed as percent of control at 50000 nM by qPCR analysis relative to control
Chain of Serine/threonine-protein kinase Nek6 (Homo sapiens) (Q9HC98 whole entry): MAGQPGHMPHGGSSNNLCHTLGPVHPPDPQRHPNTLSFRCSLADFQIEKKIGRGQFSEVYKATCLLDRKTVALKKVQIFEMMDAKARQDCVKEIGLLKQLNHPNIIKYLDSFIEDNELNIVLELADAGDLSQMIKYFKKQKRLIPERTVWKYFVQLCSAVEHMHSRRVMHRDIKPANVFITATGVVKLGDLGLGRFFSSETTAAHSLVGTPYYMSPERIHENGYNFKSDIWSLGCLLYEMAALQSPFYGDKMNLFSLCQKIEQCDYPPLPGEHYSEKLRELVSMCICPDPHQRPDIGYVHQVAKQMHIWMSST

[13] = target: Macrophage colony-stimulating factor 1 receptor (Homo sapiens) (UniProt P07333); assay: Inhibition of DNA-tagged human CSF1R assessed as percent of control at 50000 nM by qPCR analysis relative to control
[14] = target: Serine/threonine-protein kinase VRK2 (Homo sapiens) (UniProt Q86Y07); assay: Inhibition of DNA-tagged human VRK2 assessed as percent of control at 50000 nM by qPCR analysis relative to control
Chain of Serine/threonine-protein kinase VRK2 (Homo sapiens) (Q86Y07 whole entry): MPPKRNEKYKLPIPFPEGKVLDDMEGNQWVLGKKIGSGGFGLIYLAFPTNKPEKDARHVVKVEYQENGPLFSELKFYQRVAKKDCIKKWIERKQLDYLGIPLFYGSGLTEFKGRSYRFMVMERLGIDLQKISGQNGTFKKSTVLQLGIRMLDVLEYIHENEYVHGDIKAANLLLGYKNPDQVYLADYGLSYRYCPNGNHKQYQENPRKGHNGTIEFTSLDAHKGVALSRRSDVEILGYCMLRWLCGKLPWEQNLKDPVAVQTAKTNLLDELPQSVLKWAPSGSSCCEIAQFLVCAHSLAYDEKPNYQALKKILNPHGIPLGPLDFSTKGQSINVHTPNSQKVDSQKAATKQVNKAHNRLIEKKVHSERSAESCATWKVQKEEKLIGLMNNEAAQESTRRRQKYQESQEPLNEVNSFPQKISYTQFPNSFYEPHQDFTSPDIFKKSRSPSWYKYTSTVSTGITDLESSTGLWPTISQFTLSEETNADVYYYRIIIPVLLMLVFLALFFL

[15] = target: Dual serine/threonine and tyrosine protein kinase (Homo sapiens) (UniProt Q6XUX3); assay: Inhibition of DNA-tagged human RIPK5 assessed as percent of control at 50000 nM by qPCR analysis relative to control
[16] = target: Homeodomain-interacting protein kinase 1 (Homo sapiens) (UniProt Q86Z02); assay: Inhibition of DNA-tagged human HIPK1 assessed as percent of control at 50000 nM by qPCR analysis relative to control
[17] = target: Calcium/calmodulin-dependent protein kinase type 1G (Homo sapiens) (UniProt Q96NX5); assay: Inhibition of DNA-tagged human CAMK1G assessed as percent of control at 50000 nM by qPCR analysis relative to control
[18] = tested on: Tyrosine-protein kinase ABL1 (Homo sapiens), P00519 [UNDEFINED MUTATION]; assay: Inhibition of DNA-tagged phosphorylated human ABL1 […] mutant assessed as percent of control at 50000 nM by qPCR analysis relative to control
[19] = target: Vascular endothelial growth factor receptor 3 (Homo sapiens) (UniProt P35916); assay: Inhibition of DNA-tagged human FLT4 assessed as percent of control at 50000 nM by qPCR analysis relative to control
Chain of Vascular endothelial growth factor receptor 3 (Homo sapiens) (P35916 whole entry): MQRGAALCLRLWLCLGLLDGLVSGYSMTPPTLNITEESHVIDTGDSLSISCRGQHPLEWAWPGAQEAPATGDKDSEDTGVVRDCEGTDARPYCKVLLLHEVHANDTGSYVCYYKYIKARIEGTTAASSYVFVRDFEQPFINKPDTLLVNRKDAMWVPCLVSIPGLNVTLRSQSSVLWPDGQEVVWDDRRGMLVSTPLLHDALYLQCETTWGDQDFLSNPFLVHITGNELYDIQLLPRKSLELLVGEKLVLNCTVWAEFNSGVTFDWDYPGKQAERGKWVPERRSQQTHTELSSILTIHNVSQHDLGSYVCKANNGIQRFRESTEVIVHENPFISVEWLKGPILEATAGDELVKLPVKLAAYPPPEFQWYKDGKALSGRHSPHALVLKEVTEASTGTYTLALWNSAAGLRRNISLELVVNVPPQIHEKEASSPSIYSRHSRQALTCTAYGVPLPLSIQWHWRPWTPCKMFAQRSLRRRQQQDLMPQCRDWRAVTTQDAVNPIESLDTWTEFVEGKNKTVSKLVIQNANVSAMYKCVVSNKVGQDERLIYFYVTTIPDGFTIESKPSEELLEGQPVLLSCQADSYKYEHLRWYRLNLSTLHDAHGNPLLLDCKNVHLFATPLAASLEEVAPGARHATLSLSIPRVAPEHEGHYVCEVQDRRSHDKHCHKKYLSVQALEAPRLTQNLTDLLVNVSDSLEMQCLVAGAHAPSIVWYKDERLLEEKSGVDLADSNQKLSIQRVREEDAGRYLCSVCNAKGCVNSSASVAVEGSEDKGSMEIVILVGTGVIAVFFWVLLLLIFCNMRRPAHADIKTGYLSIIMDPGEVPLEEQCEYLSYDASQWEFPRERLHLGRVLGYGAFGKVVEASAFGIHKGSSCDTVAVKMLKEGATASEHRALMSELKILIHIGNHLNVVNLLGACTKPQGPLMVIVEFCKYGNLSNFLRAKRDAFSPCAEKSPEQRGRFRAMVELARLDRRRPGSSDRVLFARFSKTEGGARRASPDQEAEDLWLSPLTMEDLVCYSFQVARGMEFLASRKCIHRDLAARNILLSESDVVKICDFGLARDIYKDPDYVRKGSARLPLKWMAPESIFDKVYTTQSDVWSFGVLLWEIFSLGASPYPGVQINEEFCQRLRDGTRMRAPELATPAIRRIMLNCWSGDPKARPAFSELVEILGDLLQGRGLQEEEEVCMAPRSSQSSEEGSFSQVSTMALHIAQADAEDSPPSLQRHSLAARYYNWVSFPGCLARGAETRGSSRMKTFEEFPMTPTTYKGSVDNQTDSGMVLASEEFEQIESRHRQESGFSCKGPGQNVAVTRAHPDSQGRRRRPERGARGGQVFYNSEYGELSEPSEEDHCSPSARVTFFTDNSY

[20] = target: Hormonally up-regulated neu tumor-associated kinase (Homo sapiens) (UniProt P57058); assay: Inhibition of DNA-tagged human HUNK assessed as percent of control at 50000 nM by qPCR analysis relative to control
[21] = target: Dual specificity tyrosine-phosphorylation-regulated kinase 1B (Homo sapiens) (UniProt Q9Y463); assay: Inhibition of DNA-tagged human DYRK1B assessed as percent of control at 50000 nM by qPCR analysis relative to control
[22] = target: Cyclin-dependent kinase 15 (Homo sapiens) (UniProt Q96Q40); assay: Inhibition of DNA-tagged human PFTAIRE2 assessed as percent of control at 50000 nM by qPCR analysis relative to control
[23] = tested on: Receptor-type tyrosine-protein kinase FLT3 (Homo sapiens), P36888 [D835Y]; assay: Inhibition of DNA-tagged human FLT3 D835Y mutant assessed as percent of control at 50000 nM by qPCR analysis relative to control
[24] = tested on: Mast/stem cell growth factor receptor Kit (Homo sapiens), P10721 [D816V]; assay: Inhibition of DNA-tagged human KIT D816V mutant assessed as percent of control at 50000 nM by qPCR analysis relative to control
[25] = target: Protein kinase C delta type (Homo sapiens) (UniProt Q05655); assay: Inhibition of DNA-tagged human PRKCD assessed as percent of control at 50000 nM by qPCR analysis relative to control
[26] = target: Ribosomal protein S6 kinase alpha-4 (Homo sapiens) (UniProt O75676); assay: Inhibition of DNA-tagged human N-terminal RPS6KA4 kinase domain assessed as percent of control at 50000 nM by qPCR analysis relative to control
[27] = target: Insulin receptor (Homo sapiens) (UniProt P06213); assay: Inhibition of DNA-tagged human INSR assessed as percent of control at 50000 nM by qPCR analysis relative to control
[28] = target: Mitogen-activated protein kinase 15 (Homo sapiens) (UniProt Q8TD08); assay: Inhibition of DNA-tagged human ERK8 assessed as percent of control at 50000 nM by qPCR analysis relative to control
Chain of Mitogen-activated protein kinase 15 (Homo sapiens) (Q8TD08 whole entry): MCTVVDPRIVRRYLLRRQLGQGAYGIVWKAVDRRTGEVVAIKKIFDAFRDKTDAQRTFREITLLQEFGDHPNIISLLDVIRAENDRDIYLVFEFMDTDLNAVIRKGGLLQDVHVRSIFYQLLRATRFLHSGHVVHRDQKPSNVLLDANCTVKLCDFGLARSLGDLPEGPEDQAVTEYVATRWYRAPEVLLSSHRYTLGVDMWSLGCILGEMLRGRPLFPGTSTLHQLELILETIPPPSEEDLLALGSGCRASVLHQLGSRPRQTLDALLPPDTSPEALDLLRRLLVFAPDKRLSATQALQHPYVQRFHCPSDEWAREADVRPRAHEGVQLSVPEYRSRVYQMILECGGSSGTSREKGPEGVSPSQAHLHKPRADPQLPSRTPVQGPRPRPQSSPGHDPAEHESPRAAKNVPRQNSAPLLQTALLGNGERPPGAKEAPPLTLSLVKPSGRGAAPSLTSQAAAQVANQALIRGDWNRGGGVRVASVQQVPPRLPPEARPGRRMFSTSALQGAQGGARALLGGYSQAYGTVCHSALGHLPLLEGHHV

[29] = target: Serine/threonine-protein kinase Nek2 (Homo sapiens) (UniProt P51955); assay: Inhibition of DNA-tagged human NEK2 assessed as percent of control at 50000 nM by qPCR analysis relative to control

Compound: CN1C(=O)/C(=C2/C(=O)Nc3ccccc32)c2ccccc21
- Activity [1]: 100%
- Activity [2]: 90%
- Activity [3]: 94%
- Activity [4]: 99%
- Activity [5]: 90%
- Activity [6]: 85%
- Activity [7]: 100%
- Activity [8]: 85%
- Activity [9]: 95%
- Activity [10]: 100%
- Activity [11]: 100%
- Activity [12]: 81%
- Activity [13]: 98%
- Activity [14]: 79%
- Activity [15]: 92%
- Activity [16]: 83%
- Activity [17]: 85%
- Activity [18]: 94%
- Activity [19]: 100%
- Activity [20]: 98%
- Activity [21]: 92%
- Activity [22]: 88%
- Activity [23]: 75%
- Activity [24]: 100%
- Activity [25]: 100%
- Activity [26]: 82%
- Activity [27]: 91%
- Activity [28]: 96%
- Activity [29]: 100%
